Source: the kinase profiling compilation of Christmann-Franck et al. (2016)

How the values were obtained:
Test in all cases: KINOMEscan competition binding
Settings in all cases: compound 10.0 µM
PIK3CD (human) = PIK3CD (human) (UniProt O00329)
MYLK4 (human) = MYLK4 (human) (UniProt Q86YV6)
MAPK1 (human) = MAPK1 (human) (UniProt P28482)
STK38L (human) = STK38L (human) (UniProt Q9Y2H1)
EPHA1 (human) = EPHA1 (human) (UniProt P21709)
RPS6KA4 KD2 (human) = RPS6KA4 KD2 (human) (UniProt O75676)
MAPKAPK5 (human) = MAPKAPK5 (human) (UniProt Q8IW41)
DAPK2 (human) = DAPK2 (human) (UniProt Q9UIK4)
EPHB4 (human) = EPHB4 (human) (UniProt P54760)
MYLK2 (human) = MYLK2 (human) (UniProt Q9H1R3)
PKMYT1 (human) = PKMYT1 (human) (UniProt Q99640)
PRKD3 (human) = PRKD3 (human) (UniProt O94806)
ULK2 (human) = ULK2 (human) (UniProt Q8IYT8)
EPHB2 (human) = EPHB2 (human) (UniProt P29323)
[1] = tested on: ABL1 (human), P00519 [H396P]
PRKG1 (human) = PRKG1 (human) (UniProt Q13976)
ABL1 (human) = ABL1 (human) (UniProt P00519)
HCK (human) = HCK (human) (UniProt P08631)
DDR1 (human) = DDR1 (human) (UniProt Q08345)
AKT3 (human) = AKT3 (human) (UniProt Q9Y243)
SRPK1 (human) = SRPK1 (human) (UniProt Q96SB4)
LIMK2 (human) = LIMK2 (human) (UniProt P53671)
MYLK (human) = MYLK (human) (UniProt Q15746)
PHKG2 (human) = PHKG2 (human) (UniProt P15735)
FRK (human) = FRK (human) (UniProt P42685)
[2] = tested on: RET (human), P07949 [M918T]
RPS6KA6 KD1 (human) = RPS6KA6 KD1 (human) (UniProt Q9UK32)

Measured: kinase still bound, per cent of control

Sequence of DAPK2 (human) (Q9UIK4 whole entry, looked up): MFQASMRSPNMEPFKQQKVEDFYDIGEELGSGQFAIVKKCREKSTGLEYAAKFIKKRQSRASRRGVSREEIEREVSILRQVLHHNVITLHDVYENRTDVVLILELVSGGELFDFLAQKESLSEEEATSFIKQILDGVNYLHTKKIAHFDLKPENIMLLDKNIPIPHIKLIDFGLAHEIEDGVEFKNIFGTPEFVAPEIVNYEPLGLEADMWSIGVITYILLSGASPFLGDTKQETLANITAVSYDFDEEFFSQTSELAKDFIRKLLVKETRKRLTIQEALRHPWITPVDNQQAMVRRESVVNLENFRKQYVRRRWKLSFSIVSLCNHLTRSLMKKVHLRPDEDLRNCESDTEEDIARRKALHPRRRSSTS
Sequence of RET (human), P07949 [M918T] (P07949 whole entry M918T, looked up): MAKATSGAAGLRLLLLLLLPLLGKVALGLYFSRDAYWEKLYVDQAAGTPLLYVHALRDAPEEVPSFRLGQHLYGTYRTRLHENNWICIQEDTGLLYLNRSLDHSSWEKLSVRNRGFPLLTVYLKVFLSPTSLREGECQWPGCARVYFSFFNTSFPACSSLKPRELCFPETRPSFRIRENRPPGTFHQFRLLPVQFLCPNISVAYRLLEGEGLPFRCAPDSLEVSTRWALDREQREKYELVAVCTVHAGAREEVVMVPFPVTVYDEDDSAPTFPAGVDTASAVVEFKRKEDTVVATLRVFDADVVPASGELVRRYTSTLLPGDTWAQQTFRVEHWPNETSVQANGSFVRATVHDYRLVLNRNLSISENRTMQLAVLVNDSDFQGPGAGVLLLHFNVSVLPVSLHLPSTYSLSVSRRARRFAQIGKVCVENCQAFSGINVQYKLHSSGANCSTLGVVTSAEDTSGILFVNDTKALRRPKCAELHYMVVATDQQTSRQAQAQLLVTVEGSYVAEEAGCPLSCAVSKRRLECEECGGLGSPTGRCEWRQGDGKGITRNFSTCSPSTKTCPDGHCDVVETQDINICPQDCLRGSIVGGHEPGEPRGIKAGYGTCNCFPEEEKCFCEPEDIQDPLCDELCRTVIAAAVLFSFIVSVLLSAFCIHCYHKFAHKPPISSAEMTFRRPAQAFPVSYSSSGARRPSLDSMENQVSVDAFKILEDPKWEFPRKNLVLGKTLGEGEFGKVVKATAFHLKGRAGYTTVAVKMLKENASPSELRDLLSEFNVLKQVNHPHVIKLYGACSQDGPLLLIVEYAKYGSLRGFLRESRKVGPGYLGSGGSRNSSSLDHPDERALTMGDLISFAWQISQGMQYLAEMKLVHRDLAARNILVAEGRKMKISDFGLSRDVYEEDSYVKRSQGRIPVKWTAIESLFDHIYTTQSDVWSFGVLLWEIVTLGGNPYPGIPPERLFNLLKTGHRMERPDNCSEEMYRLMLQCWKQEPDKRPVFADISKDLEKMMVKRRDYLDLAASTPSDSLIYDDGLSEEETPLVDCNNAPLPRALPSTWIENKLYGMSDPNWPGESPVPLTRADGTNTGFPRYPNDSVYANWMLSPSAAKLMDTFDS
Sequence of MYLK2 (human) (Q9H1R3 whole entry, looked up): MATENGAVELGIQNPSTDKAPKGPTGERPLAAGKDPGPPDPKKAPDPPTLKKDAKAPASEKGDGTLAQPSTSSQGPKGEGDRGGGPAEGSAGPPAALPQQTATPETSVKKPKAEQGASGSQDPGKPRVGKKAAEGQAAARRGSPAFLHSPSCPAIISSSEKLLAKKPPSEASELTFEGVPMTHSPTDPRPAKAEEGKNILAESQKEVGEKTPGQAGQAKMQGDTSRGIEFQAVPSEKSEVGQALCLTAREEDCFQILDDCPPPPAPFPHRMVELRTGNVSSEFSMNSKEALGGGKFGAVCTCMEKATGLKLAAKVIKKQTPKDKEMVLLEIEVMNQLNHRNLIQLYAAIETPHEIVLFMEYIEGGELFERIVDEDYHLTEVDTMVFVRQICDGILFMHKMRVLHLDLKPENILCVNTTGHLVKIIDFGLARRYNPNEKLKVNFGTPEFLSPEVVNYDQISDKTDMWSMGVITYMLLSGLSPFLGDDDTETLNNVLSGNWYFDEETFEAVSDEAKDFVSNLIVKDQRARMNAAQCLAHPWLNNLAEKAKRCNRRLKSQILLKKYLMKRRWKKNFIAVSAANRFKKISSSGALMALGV
Sequence of ULK2 (human) (Q8IYT8 whole entry, looked up): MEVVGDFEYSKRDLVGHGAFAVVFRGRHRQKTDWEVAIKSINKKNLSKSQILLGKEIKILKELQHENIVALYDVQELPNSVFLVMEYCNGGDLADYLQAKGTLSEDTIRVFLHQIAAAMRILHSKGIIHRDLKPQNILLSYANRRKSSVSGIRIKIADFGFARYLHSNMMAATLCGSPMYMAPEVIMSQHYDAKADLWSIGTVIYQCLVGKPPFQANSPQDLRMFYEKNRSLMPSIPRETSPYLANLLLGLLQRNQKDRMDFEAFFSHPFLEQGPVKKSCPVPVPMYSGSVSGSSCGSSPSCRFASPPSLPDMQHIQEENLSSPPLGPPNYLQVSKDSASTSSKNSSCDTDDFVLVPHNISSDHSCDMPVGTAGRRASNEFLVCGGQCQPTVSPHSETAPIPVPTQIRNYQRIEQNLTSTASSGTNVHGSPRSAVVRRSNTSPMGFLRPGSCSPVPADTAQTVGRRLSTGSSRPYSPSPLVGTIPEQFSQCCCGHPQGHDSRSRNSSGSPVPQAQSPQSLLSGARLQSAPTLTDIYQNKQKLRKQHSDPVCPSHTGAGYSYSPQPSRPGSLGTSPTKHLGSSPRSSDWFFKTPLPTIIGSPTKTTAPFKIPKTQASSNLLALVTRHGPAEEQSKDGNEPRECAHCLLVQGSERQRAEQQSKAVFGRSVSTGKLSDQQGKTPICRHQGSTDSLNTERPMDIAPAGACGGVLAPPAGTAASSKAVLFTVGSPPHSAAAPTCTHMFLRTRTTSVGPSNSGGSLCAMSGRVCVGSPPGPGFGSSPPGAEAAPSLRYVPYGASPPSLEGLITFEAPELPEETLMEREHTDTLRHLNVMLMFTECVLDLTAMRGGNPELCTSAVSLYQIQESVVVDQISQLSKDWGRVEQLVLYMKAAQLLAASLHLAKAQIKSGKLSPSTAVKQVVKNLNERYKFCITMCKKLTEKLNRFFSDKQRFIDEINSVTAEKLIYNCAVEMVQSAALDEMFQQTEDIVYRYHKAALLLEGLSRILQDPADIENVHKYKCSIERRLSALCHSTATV
Sequence of AKT3 (human) (Q9Y243 whole entry, looked up): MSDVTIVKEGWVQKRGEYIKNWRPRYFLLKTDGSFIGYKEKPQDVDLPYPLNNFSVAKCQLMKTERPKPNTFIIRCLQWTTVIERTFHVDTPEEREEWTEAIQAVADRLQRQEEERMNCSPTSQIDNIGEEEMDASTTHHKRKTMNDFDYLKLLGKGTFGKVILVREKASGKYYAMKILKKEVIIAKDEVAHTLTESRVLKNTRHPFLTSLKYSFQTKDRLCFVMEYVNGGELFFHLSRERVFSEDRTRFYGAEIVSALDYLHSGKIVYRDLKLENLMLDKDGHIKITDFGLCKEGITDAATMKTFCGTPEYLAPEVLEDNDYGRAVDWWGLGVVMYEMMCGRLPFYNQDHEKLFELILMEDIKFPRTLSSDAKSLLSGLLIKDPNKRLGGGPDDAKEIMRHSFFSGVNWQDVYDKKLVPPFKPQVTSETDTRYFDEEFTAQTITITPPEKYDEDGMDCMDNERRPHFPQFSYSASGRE
Sequence of EPHB4 (human) (P54760 whole entry, looked up): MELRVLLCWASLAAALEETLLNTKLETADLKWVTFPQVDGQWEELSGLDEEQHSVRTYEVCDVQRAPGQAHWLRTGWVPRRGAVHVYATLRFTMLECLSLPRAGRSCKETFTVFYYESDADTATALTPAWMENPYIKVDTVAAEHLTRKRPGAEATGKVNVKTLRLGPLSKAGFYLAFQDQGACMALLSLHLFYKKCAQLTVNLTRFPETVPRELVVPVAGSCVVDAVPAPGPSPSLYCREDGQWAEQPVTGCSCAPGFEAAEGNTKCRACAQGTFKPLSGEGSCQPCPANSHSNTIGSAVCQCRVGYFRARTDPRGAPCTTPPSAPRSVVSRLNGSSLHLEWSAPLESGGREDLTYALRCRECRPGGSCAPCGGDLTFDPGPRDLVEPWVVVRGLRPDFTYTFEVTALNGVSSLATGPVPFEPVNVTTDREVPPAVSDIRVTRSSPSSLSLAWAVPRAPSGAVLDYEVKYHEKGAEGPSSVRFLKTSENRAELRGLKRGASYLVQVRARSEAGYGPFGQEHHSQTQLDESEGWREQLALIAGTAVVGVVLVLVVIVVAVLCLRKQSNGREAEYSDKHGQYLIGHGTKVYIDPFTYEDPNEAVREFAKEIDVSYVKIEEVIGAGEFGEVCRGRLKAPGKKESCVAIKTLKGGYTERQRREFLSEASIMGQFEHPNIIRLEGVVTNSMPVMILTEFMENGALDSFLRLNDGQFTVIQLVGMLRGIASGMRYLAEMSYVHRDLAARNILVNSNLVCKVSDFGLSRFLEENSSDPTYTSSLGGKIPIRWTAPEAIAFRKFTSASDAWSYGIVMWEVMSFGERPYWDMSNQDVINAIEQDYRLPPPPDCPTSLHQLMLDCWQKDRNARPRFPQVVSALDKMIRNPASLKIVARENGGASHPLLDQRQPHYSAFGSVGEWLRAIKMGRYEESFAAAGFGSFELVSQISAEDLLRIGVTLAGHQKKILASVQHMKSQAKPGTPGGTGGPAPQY
Sequence of MYLK4 (human) (Q86YV6 whole entry, looked up): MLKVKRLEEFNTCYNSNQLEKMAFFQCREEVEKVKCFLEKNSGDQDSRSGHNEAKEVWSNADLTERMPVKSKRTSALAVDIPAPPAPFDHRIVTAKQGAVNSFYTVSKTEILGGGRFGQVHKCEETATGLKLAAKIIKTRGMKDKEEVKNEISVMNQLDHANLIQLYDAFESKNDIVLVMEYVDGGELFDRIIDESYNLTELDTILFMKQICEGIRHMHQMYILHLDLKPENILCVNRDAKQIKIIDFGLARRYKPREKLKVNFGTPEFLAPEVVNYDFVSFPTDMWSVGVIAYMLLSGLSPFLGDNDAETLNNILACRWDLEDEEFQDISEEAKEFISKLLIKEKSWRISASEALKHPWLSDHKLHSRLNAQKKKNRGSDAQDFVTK

Cc1n[nH]c2ccc(-c3cncc(OC[C@@H](N)Cc4c[nH]c5ccccc45)c3)cc12
1.3%: DAPK2 (human)
0.1%: MYLK (human)
1.6%: PRKD3 (human)
23%: PHKG2 (human)
2.9%: AKT3 (human)
9.9%: RPS6KA4 KD2 (human)
12%: ULK2 (human)
0.65%: PRKG1 (human)
17%: SRPK1 (human)
3%: MYLK4 (human)
100%: all other assays above

CNC(=O)c1ccc(Nc2cc(Nc3ccccc3S(=O)(=O)C(C)C)c3cc[nH]c3n2)nc1
22%: MAPK1 (human)
29%: RPS6KA6 KD1 (human)
1.4%: [2]
15%: STK38L (human)
2%: SRPK1 (human)
11%: ABL1 (human) | HCK (human)
10%: [1]
9.1%: ULK2 (human)
33%: FRK (human)
100%: all other assays above

C=CC(=O)Nc1ccc(CN(C(=O)Nc2c(Cl)c(OC)cc(OC)c2Cl)c2cc(Nc3ccc(N4CCN(C)CC4)cc3)ncn2)cc1
0.4%: [2]
0%: DDR1 (human)
16%: ABL1 (human)
20%: [1]
11%: HCK (human)
0.65%: FRK (human)
100%: all other assays above

CCN(CC)CCCCNc1ncc2cc(-c3cc(OC)cc(OC)c3)c(NC(=O)NC(C)(C)C)nc2n1
1.1%: DDR1 (human)
not listed: PIK3CD (human) | ULK2 (human)
100%: all other assays above
